In patent US6221865A, “Inhibitors of protein isoprenyl transferases” (priority 1998, dated 2001):
Where a name gives a salt, the structure may show the parent alone. Each block holds one compound with its values, some of them ahead of it.

Target: T1, protein farnesyltransferase (Rattus norvegicus, UniProt Q02293+Q04631)
T1 construct: The enzyme is purified according to Reiss, Y., et al., Cell, 62: 81-88 (1990), utilizing steps one through three; from tissue; host or cells: rat brain
Assay: Inhibition of farnesyltransferase (scintillation proximity assay, rat brain enzyme, biotin-K Ras B fragment substrate)
Type: biochemical
Details: for % inhibition of farnesyltransferase at 1 × 10^-7 M: 1 × 10^-7 M (Table 3); for inhibition at 0.1 µM: read-out: % inhibition at 0.1 μM (*), Table 6, * = 0.1 μM (footnote), title prints 0.1 mM
Summary of the method: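 Enzyme from rat brain, partly purified (steps one to three), assayed by SPA kit using 0.1 mM final biotin-K Ras B peptide as prenyl acceptor rather than biotin-lamin. Activity given as percent inhibition.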

T1 sequence (Q02293 whole entry, one chain of several): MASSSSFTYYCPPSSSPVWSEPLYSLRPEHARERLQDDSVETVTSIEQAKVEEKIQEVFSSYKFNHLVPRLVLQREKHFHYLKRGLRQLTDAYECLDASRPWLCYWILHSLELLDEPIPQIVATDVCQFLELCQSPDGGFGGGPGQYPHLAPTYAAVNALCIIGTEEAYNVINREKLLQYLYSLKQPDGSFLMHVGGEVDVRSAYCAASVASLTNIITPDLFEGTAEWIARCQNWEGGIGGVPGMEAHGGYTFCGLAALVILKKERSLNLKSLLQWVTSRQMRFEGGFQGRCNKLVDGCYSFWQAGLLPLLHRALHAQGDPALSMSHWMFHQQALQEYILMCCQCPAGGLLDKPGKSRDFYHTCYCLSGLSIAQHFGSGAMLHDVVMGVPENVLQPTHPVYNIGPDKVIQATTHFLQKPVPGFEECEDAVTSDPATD

% inhibition of farnesyltransferase at 1 × 10^-6 M (1 × 10^-6 M (Table 2)): 41%
SMILES: COc1cccc(CNCc2ccc(C(=O)N[C@@H](CCSC)C(=O)O)c(-c3ccccc3)c2)c1 [Example 652]

% inhibition of farnesyltransferase at 1 × 10^-7 M: 88%
SMILES: CSCC[C@H](NC(=O)c1ccc(COCc2ccc(C)o2)cc1-c1ccccc1C)C(=O)O [Example 532]

% inhibition of farnesyltransferase at 1 × 10^-6 M (1 × 10^-6 M (Table 2)): 92%
SMILES: CSCC[C@H](NC(=O)c1ccc(CN(Cc2ccco2)C(C)C)cc1-c1ccccc1C)C(=O)O [Example 831]

% inhibition of farnesyltransferase at 1 × 10^-6 M (1 × 10^-6 M (Table 2)): 99%
SMILES: CSCC[C@H](NC(=O)c1ccc(CNC(CC2CCCCC2)C(O)C(O)CC(C)C)cc1-c1ccccc1C)C(=O)O (stereo partly drawn) [Example 528]

SMILES: CSCC[C@H](NC(=O)c1ccc(COCCC2CCCCC2)cc1-c1ccccc1C)C(=O)[O-].[Li+] [Example 594]
% inhibition of farnesyltransferase at 1 × 10^-7 M: 95%

inhibition at 0.1 µM: 86%
SMILES: CSCC[C@H](NC(=O)c1ccc(CP(C)(=O)CC2CCCCC2)cc1-c1ccccc1C)C(=O)O (stereo partly drawn) [Example 1212, N-[4-((Cylohexylmethyl)methyl(oxophosphinyl)methyl)-2-(2-methylphenyl)benzoyl]methionine]

% inhibition of farnesyltransferase at 1 × 10^-8 M (1 × 10^-8 M (Table 4)): 94%
SMILES: CSCC[C@H](NC(=O)c1ccc(CO[C@H](CSc2ccccc2)CC2CCCCC2)cc1-c1ccccc1C)C(=O)O [Example 884]

SMILES: CCCCN(Cc1cc(F)cc(F)c1)OCc1ccc(C(=O)N[C@@H](CCSC)C(=O)O)c(-c2ccccc2C)c1 [Example 1176, N-[4-N-Butyl-N-(3,5-difluorobenzyl)aminooxymethyl-2-(2-methylphenyl)benzoyl]methionine lithium salt]
inhibition at 0.1 µM: 97%

inhibition at 1 µM (read-out: % inhibition of farnesyltransferase at 1 × 10^-6 M, 1 × 10^-6 M (Table 2)): 98%
SMILES: Cc1ccccc1-c1cc(CN(C2CC2)C2(CC3CCCCC3)CCCC2)ccc1C(=O)N[C@@H](CCS(C)(=O)=O)C(=O)O [Example 346]
